# Results from patent US20130252818A1, “AMORPHOUS BIOINORGANIC IONIC LIQUID COMPOSITIONS COMPRISING AGRICULTURAL SUBSTANCES” (priority 2012, published 2013).
# Counter-ions that a name gives are not always drawn. Like-named read-outs stand apart in the source and are kept apart here.
# Experiments:
# [1] = Storage under Ar, observed over 6 months for crystalline domains; format: physicochemical; conditions: stored under Ar
# [2] = Thermogravimetric analysis (TGA), decomposition temperature; format: physicochemical
# Experimental: Melting points of all purchased materials were determined in a capillary tube using a MeI-Temp apparatus (Barnstead/Thermo Scientific). NMR data sets were collected on a 300 MHz Bruker instrument using sample concentrations of 50 mM. Infrared spectra were measured using an Avatar 360 FT-IR ESP (ThermoElectron-Nicolet, Waltham, Mass.) equipped with a Smart DuraSampllR horizontal attenuated total reflectance (HATR) accessory. Raman spectra were measured using a Thermo-Nicolet 470 FTIR with Nd:YAG laser excitation and HgCdTe detector. Viscosity was measured on 1 mL samples with a Viscolab 3000 viscometer (Cambridge Viscosity, Medford, Mass.). Samples were heated to 90° C., except when otherwise specified, and viscosity was recorded in 2 degree increments between 50 and 90° C. with 8 min equilibration at each temperature. Thermal characterization was carried out using a Q100 DSC and a Q500 TGA (both from TA Instruments, New Castle, Del.). DSC was performed using a 5-10 mg sample in a 40 μL aluminum crucible sealed in the glovebox. A temperature range from −60 to 150° C. was scanned twice, at ramp rates of 5° C./min and 10° C./min. TGA was performed under N2 atmosphere over a temperature range from 25-800° C. with a ramp rate of 20° C. per minute and a sample size of 10 mg.
# [3] = Solubility of the IL in solvents
# [4] = tested on: Pseudomonas aeruginosa biofilms; assay: Challenge of established biofilms with test compounds, CFU count; format: cell-based; conditions: 72 h biofilm, 6 h challenge
# Pseudomonas aeruginosa = assay: Biofilm growth on IL-coated culture plates; format: cell-based; conditions: wells coated with 100 uL IL, 72 h
# Experimental: (§1) A second example of clear, colorless antimicrobial films formed by compositions described herein was shown with an assay that involved coating culture plates with IL and observing the biofilm growth on the coated surface. […] Aliquots of 100 μL of either a Staphylococcus aureus culture, an E. coli culture, or a Pseudomonas aeruginosa culture were added to each coated well, the plate was fed with fresh media every 24 h, and cells were counted after 72 h, as described above. The number of cells in the treated wells was below the limit of detection of the assay of 1000 cfu/mL, as compared with normal cell counts for the LB control wells, indicating high antimicrobial efficacy of the IL coating. Because bacteria colonize a surface prior to barnacles and other organisms, proof of antibacterial effects is key to showing anti-biofouling potential in aquatic environments.
# Staphylococcus aureus = assay: Biofilm growth on IL-coated culture plates; format: cell-based; conditions: wells coated with 100 uL IL, 72 h
# Experimental: as §1
# E. coli = assay: Biofilm growth on IL-coated culture plates; format: cell-based; conditions: wells coated with 100 uL IL, 72 h
# Experimental: as §1
# [5] = Solubility at 1 mM in unbuffered water by eye and UV-Vis after filtration; conditions: for A268 of the filtrate: 0.45 μm syringe filter
# Experimental: Solubility of phenoxybenzamine hydrochloride and phenoxybenzamine-HCl—(ZnCl2)2 at 1 mM in unbuffered water (pH 6.5) was evaluated by eye and by UV-Vis spectroscopy after filtration through a 0.45 μm syringe filter.
# [6] = Shelf life estimate by model-free isoconversional kinetic analysis of TGA data; format: physicochemical
# Experimental: Zinc(II) chloride (273 mg, 2 mmol) was added to a scintillation vial that had been heated, then cooled under vacuum and charged with dry argon. Phenoxybenzamine hydrochloride (340.3 mg, 1 mmol) was added to the vial with a stir bar and the mixture was degassed with stirring at 60° C. The vial was filled with argon, sealed with a cap, and stirred for 24 h at 80° C. to produce a clear, colorless glass. […] NMR spectra for ^1H and ^13C were obtained in d6-acetone. […] Spectra of phenoxybenzamine-HCl were performed with 0, 0.25, 0.5, 1.0, 1.5, 2.0, and 5.0 molar equivalents of ZnCl2 to observe this effect. Thermal decomposition after a 3 h incubation of the IL at a constant 120° C. was 2.7% of the starting mass. In contrast, the phenoxybenzamine hydrochloride starting material loses 38% of its mass after a similar incubation. The IL was soluble (>1 mM) in acetone, water and phosphate buffered to pH 6.0. The IL was insoluble (<1 mM) in toluene and tetrahydrofuran. […] Model-free isoconversional kinetic analysis (for more detail, see: Doyle, C. D., J. Appl. Polym. Sci. 1962, 6:639-642; and Long, G. T. et al., J. Pharm. Sci. 2002, 91:800-809) of TGA data was used to estimate increases in shelf life due to IL formulation for phenoxybenzamine hydrochloride and phenoxybenzamine-HCl—(ZnCl2)2. The onset of mass loss indicates loss of HCl during cyclization of the 2-chloroethylamine group, the most common decomposition pathway for phenoxybenzamine hydrochloride (for more detail, see: Adams, W. P. et al., Int. J. Pharm. 1985, 25:293-312). Formulation as an ionic liquid improves the shelf life (time to reach 5% decomposition) of solid phenoxybenzamine hydrochloride at 20° C. by 7.7-fold to 15.8 years. […] The manufacturer's shelf life for 10 mg phenoxybenzamine hydrochloride tablets is 2 years, or 730 days, and the calculated value for solid phenoxybenzamine hydrochloride (5% decay at 20° C.) was 750 days (2.05 years), indicating good agreement of the calculation with actual shelf life. The most common decomposition pathway for phenoxybenzamine hydrochloride is loss of hydrochloride during cyclization of the 2-chloroethylamine group (for more detail, see: Adams, W. P. et al., Int. J. Pharm. 1985, 25:293-312) and we expect this is the earliest mass loss observed by TGA. The IL phenoxybenzamine-HCl—(ZnCl2)2 is a stabilized, amorphous formulation with shelf life greater than that of the most common crystalline form.
# [7] = format: physicochemical; conditions: 3 h incubation at constant 120° C.
# [8] = TGA under N2, ramp 20° C. per minute
# [9] = 1 mM in unbuffered water (pH 6.5)
# [10] = solid, 20° C., calculated from TGA kinetics
compound,measurement,setting,value
CNC(=C[N+](=O)[O-])NCCSCc1ccc(CN(C)C)o1.Cl.[Cl][Zn][Cl].[Cl][Zn][Cl],Appearance of crystalline domains on storage,[1],no crystalline domains appeared
same,ΔTdec (increase in decomposition temperature relative to HCl starting material),[2],+14.1 °C
same,Solubility,[3]; acetone,> 1000 µM
"CCCC[N+]1(C)CCCC1.O=S(=O)([N-]S(=O)(=O)C(F)(F)F)C(F)(F)F [BMP-NTf2, 1-butyl-1-methypyrrolidinium bistriflimide]",Cell count remaining in biofilm,[4]; neat,2×10^5
CC(C)(C)CC(C)(C)c1ccc(OCCOCC[N+](C)(C)Cc2ccccc2)cc1 [Benzethonium-Cl—(ZnCl2)2],Number of cells in treated wells,Pseudomonas aeruginosa,< 1000 cfu/mL
same,Number of cells in treated wells,Staphylococcus aureus,< 1000 cfu/mL
same,Number of cells in treated wells,E. coli,< 1000 cfu/mL
CN1[C@@H]2CC[C@H]1CC(OC(=O)C(O)c1ccccc1)C2 (stereo partly shown) [Homatropine-HCl—(ZnCl2)2],Appearance of crystalline domains on storage,[1],no crystalline domains appeared
same,Tdec (decomposition temperature),[2],274.5 °C
same,ΔTdec (increase in decomposition temperature relative to HCl starting material),[2],+7.8 °C
CN(C)CCCN1c2ccccc2CCc2ccccc21.Cl.[Cl][Zn][Cl].[Cl][Zn][Cl] [Imipramine-HCl—(ZnCl2)2],Appearance of crystalline domains on storage,[1],no crystalline domains appeared
same,ΔTdec (increase in decomposition temperature relative to HCl starting material),[2],+21.4 °C
same,Tdec (decomposition temperature),[2]; [8],267.2 °C
[Cl-].[Na+] [NaCl],Cell count remaining in biofilm,[4]; 5 M in LB,1×10^6 cells
CC(COc1ccccc1)N(CCCl)Cc1ccccc1.Cl.[Cl][Zn][Cl].[Cl][Zn][Cl] (stereo not shown) [Phenoxybenzamine-HCl—(ZnCl2)2],Solubility evaluated by eye,[5]; 1 mM (0.34 mg/mL) in unbuffered water (pH 6.5),completely dissolve
same,A268 of the filtrate relative to phenoxybenzamine hydrochloride solution,[5]; [9],5 ×
same,A268 of the filtrate,[5]; [9],1.56
same,Improvement of shelf life over standard formulation in syrup and propylene glycol (4-day refrigerator shelf life),[6],1500 fold
same,Improvement of shelf life over solid phenoxybenzamine hydrochloride,"[6]; 20° C., time to 5% decomposition",7.7 fold
same,Shelf life (time to reach 5% decomposition),[6]; [10],15.8 years
same,Appearance of crystalline domains on storage,[1],no crystalline domains appeared
same,ΔTdec (increase in decomposition temperature relative to HCl starting material),[2],+45.1 °C
same,Tdec (decomposition temperature),[2]; [8],259.0 °C
same,Solubility,[3]; acetone,> 1000 µM
same,Solubility,[3]; phosphate buffered to pH 6.0,> 1000 µM
same,Solubility,[3]; tetrahydrofuran,< 1000 µM
same,Solubility,[3]; toluene,< 1000 µM
same,Solubility,[3]; water,> 1000 µM
"[Cl-].[Cl-].[Zn+2] [ZnCl2, Zinc(II) chloride]",Cell count remaining in biofilm,[4]; 1.8 M in LB,4×10^5
CC(C)(C)CC(C)(C)c1ccc(OCCOCC[N+](C)(C)Cc2ccccc2)cc1 [benzethonium chloride],"Viable dispersed cell count (conservative estimate, some exposures)","[4]; 78 mM in LB, precipitate impeded quantification",5×10^4 cfu/mL
"CC(COc1ccccc1)N(CCCl)Cc1ccccc1 (stereo not shown) [phenoxybenzamine hydrochloride, reference compound]",A268 of the filtrate,[5]; [9],0.30
same,Shelf life (5% decay),[6]; [10],750 days
same,Shelf life (time to reach 5% decomposition),[6]; [10],2.05 years
same,"Thermal decomposition, % of the starting mass lost",[7],38%
Ethambutol-(HCl)2—(ZnCl2)2,Appearance of crystalline domains on storage,[1],no crystalline domains appeared
same,Tdec (decomposition temperature),[2]; [8],216.5 °C
Procainamide-HCl—(ZnCl2)2,Appearance of crystalline domains on storage,[1],no crystalline domains appeared
